# Assay results taken from ChEMBL document CHEMBL3232804, “Synthesis and evaluation of new diaryl ether and quinoline hybrids as potential antiplasmodial and antimicrobial agents” (Bioorg Med Chem Lett, 2014).
# How the values were obtained:
# [1] = Selectivity index, ratio of IC50 for african green monkey Vero cells to IC50 for chloroquine-sensitive Plasmodium falciparum 3D7; assay type: toxicity, cell-based; details: read-out: Ratio IC50
# Klebsiella pneumoniae = assay: Antimicrobial activity against Klebsiella pneumoniae ATCC 27736 after 24 hrs by standard broth microdilution method; assay type: functional; details: ATCC 27736, 24 h
# Sporothrix schenckii = assay: Antifungal activity against Sporothrix schenckii clinical isolate after 72 to 96 hrs by standard broth microdilution method; assay type: functional
# Cryptococcus neoformans = assay: Antifungal activity against Cryptococcus neoformans clinical isolate after 24 to 48 hrs by standard broth microdilution method; assay type: functional
# Escherichia coli = assay: Antimicrobial activity against Escherichia coli ATCC 9637 after 24 hrs by standard broth microdilution method; assay type: functional; details: ATCC 9637, 24 h
# Staphylococcus aureus = assay: Antimicrobial activity against Staphylococcus aureus ATCC 25923 after 24 hrs by standard broth microdilution method; assay type: functional; details: ATCC 25923, 24 h
# Aspergillus fumigatus = assay: Antifungal activity against Aspergillus fumigatus clinical isolate after 72 to 96 hrs by standard broth microdilution method; assay type: functional
# Pseudomonas aeruginosa = assay: Antimicrobial activity against Pseudomonas aeruginosa ATCC BAA-427 after 24 hrs by standard broth microdilution method; assay type: functional; details: ATCC BAA-427, 24 h
# [2] = test system: Trichophyton mentagrophytes; assay: Antifungal activity against Trichophyton mentagrophytes clinical isolate after 72 to 96 hrs by standard broth microdilution method; assay type: functional
# Candida albicans = assay: Antifungal activity against Candida albicans clinical isolate after 24 to 48 hrs by standard broth microdilution method; assay type: functional
# Plasmodium falciparum [3] = assay: Antiplasmodial activity against chloroquine-resistant Plasmodium falciparum K1 infected after 72 hrs by Malaria SYBR Green I-staining based fluorescence assay; assay type: functional, organism-based; details: K1, 72 h
# Candida parapsilosis = assay: Antifungal activity against Candida parapsilosis ATCC […] after 72 to 96 hrs by standard broth microdilution method; assay type: functional; details: Lodderomyces parapsilosis
# Plasmodium falciparum [4] = assay: Antiplasmodial activity against chloroquine-sensitive Plasmodium falciparum 3D7 infected after 72 hrs by Malaria SYBR Green I-staining based fluorescence assay; assay type: functional, organism-based; details: 3D7, 72 h
SMILES,selectivity ratio [1],MIC (Klebsiella pneumoniae),MIC (Sporothrix schenckii),MIC (Cryptococcus neoformans),MIC (Escherichia coli),MIC (Staphylococcus aureus),MIC (Aspergillus fumigatus),MIC (Pseudomonas aeruginosa),MIC [2],MIC (Candida albicans),IC50 (Plasmodium falciparum [3]),MIC (Candida parapsilosis),IC50 (Plasmodium falciparum [4])
Clc1ccc(Cl)c(Oc2ccc(N/C(=N/c3ccccc3)NCCNc3ccnc4cc(Cl)ccc34)cc2)c1,109,> 50 µg/mL,3.12 µg/mL,6.25 µg/mL,6.25 µg/mL,12.5 µg/mL,12.5 µg/mL,> 50 µg/mL,6.25 µg/mL,3.12 µg/mL,> 866 nM,3.12 µg/mL,39.5 nM
COC(=O)/C(C)=C/c1ccc(Oc2ccccc2N/C(=N/c2ccccc2)NCCCNc2ccnc3cc(Cl)ccc23)cc1,37.2,> 50 µg/mL,> 50 µg/mL,> 50 µg/mL,> 50 µg/mL,> 50 µg/mL,> 50 µg/mL,> 50 µg/mL,> 50 µg/mL,> 50 µg/mL,161 nM,> 50 µg/mL,174 nM
Clc1ccc(/N=C(\NCCCCNc2ccnc3cc(Cl)ccc23)Nc2ccccc2Oc2cc(Cl)ccc2Cl)cc1,11,> 50 µg/mL,> 50 µg/mL,> 50 µg/mL,> 50 µg/mL,> 50 µg/mL,> 50 µg/mL,> 50 µg/mL,> 50 µg/mL,> 50 µg/mL,151 nM,> 50 µg/mL,654 nM
COc1ccc(Oc2ccc(N/C(=N/c3ccccc3)NCCCCNc3ccnc4cc(Cl)ccc34)cc2)cc1,49,25 µg/mL,12.5 µg/mL,25 µg/mL,50 µg/mL,6.25 µg/mL,25 µg/mL,> 50 µg/mL,12.5 µg/mL,12.5 µg/mL,92.1 nM,12.5 µg/mL,86 nM
Clc1cccc(/N=C(\NCCCCNc2ccnc3cc(Cl)ccc23)Nc2ccc(Oc3cc(Cl)ccc3Cl)cc2)c1,26.3,50 µg/mL,3.12 µg/mL,12.5 µg/mL,6.25 µg/mL,6.25 µg/mL,25 µg/mL,> 50 µg/mL,6.25 µg/mL,3.12 µg/mL,> 782 nM,6.25 µg/mL,126 nM
COc1ccc(Oc2ccc(N/C(=N/c3ccccc3)NCCNc3ccnc4cc(Cl)ccc34)cc2)cc1,,12.5 µg/mL,12.5 µg/mL,50 µg/mL,6.25 µg/mL,6.25 µg/mL,25 µg/mL,> 50 µg/mL,12.5 µg/mL,25 µg/mL,635 nM,25 µg/mL,> 900 nM
COc1ccc(Oc2ccccc2N/C(=N/c2ccc(Cl)cc2)NCCCCNc2ccnc3cc(Cl)ccc23)cc1,62.8,> 50 µg/mL,25 µg/mL,50 µg/mL,> 50 µg/mL,50 µg/mL,,> 50 µg/mL,,50 µg/mL,> 800 nM,,124 nM
COc1ccc(Oc2ccccc2N/C(=N/c2ccc(Cl)cc2)NCCNc2ccnc3cc(Cl)ccc23)cc1,172,> 50 µg/mL,12.5 µg/mL,25 µg/mL,50 µg/mL,12.5 µg/mL,,> 50 µg/mL,,50 µg/mL,329 nM,,103 nM
Clc1ccc(/N=C(\NCCCNc2ccnc3cc(Cl)ccc23)Nc2ccc(Oc3cc(Cl)ccc3Cl)cc2)cc1,,> 50 µg/mL,50 µg/mL,> 50 µg/mL,> 50 µg/mL,> 50 µg/mL,> 50 µg/mL,> 50 µg/mL,50 µg/mL,> 50 µg/mL,> 800 nM,> 50 µg/mL,> 800 nM
COc1ccc(Oc2ccccc2N/C(=N/c2ccccc2)NCCNc2ccnc3cc(Cl)ccc23)cc1,,> 50 µg/mL,50 µg/mL,> 50 µg/mL,> 50 µg/mL,50 µg/mL,> 50 µg/mL,> 50 µg/mL,> 50 µg/mL,> 50 µg/mL,193 nM,> 50 µg/mL,42 nM
COC(=O)/C(C)=C/c1ccc(Oc2ccccc2N/C(=N/c2ccccc2)NCc2ccccc2)cc1,,12.5 µg/mL,> 50 µg/mL,> 50 µg/mL,> 50 µg/mL,25 µg/mL,> 50 µg/mL,> 50 µg/mL,> 50 µg/mL,> 50 µg/mL,> 1200 nM,> 50 µg/mL,> 1200 nM
COC(=O)/C(C)=C/c1ccc(Oc2ccccc2N/C(=N/c2cccc(Cl)c2)NC2CC2)cc1,,12.5 µg/mL,> 50 µg/mL,> 50 µg/mL,> 50 µg/mL,25 µg/mL,> 50 µg/mL,> 50 µg/mL,25 µg/mL,50 µg/mL,> 1200 nM,> 50 µg/mL,> 1200 nM
COc1ccc(Oc2ccccc2N/C(=N/c2cccc(Cl)c2)NCCCNc2ccnc3cc(Cl)ccc23)cc1,10.4,25 µg/mL,6.25 µg/mL,50 µg/mL,3.12 µg/mL,3.12 µg/mL,> 50 µg/mL,> 50 µg/mL,6.25 µg/mL,6.25 µg/mL,,50 µg/mL,369 nM
COC(=O)/C(C)=C/c1ccc(Oc2ccccc2N/C(=N/c2ccccc2)NCCNc2ccnc3cc(Cl)ccc23)cc1,,> 50 µg/mL,> 50 µg/mL,> 50 µg/mL,> 50 µg/mL,> 50 µg/mL,> 50 µg/mL,> 50 µg/mL,> 50 µg/mL,> 50 µg/mL,168 nM,> 50 µg/mL,> 800 nM
COc1ccc(Oc2ccccc2N/C(=N/c2ccc(Cl)cc2)NCCCNc2ccnc3cc(Cl)ccc23)cc1,123,50 µg/mL,25 µg/mL,50 µg/mL,> 50 µg/mL,> 50 µg/mL,,50 µg/mL,,> 50 µg/mL,> 800 nM,,241 nM
COC(=O)/C(C)=C/c1ccc(Oc2ccccc2N/C(=N/c2cccc(Cl)c2)NCc2ccccc2)cc1,,12.5 µg/mL,> 50 µg/mL,> 50 µg/mL,> 50 µg/mL,> 50 µg/mL,> 50 µg/mL,> 50 µg/mL,> 50 µg/mL,> 50 µg/mL,> 1200 nM,> 50 µg/mL,> 800 nM
